Source: PubChem BioAssay (NCI)
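Compound exposure: 48 hours, 5 concentrations, 96-well plates. Abbreviation: GI50, concentration required for 50% inhibition of growth. TGI is the concentration that stops growth completely.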

Key:
Assay in all cases: NCI tumour cell line growth inhibition, 48 h
[1] = tested on: OVCAR-3 ovarian
[2] = tested on: HOP-92 NSCLC
[3] = tested on: MDA-MB-231 breast
[4] = tested on: HCT-116 colon
[5] = tested on: UO-31 renal
[6] = tested on: K-562 leukemia
[7] = tested on: SK-MEL-5 melanoma
[8] = tested on: OVCAR-5 ovarian
[9] = tested on: DU-145 prostate
[10] = tested on: MOLT-4 leukemia
[11] = tested on: COLO 205 colon
[12] = tested on: HOP-62 NSCLC
[13] = tested on: SR leukemia
[14] = tested on: MDA-MB-468 breast
[15] = tested on: T-47D breast
[16] = tested on: OVCAR-4 ovarian
[17] = tested on: UACC-62 melanoma
[18] = tested on: SF-539 CNS
[19] = tested on: NCI-H23 lung
[20] = tested on: HL-60(TB) leukemia
[21] = tested on: SW-620 colon
[22] = tested on: SK-MEL-28 melanoma
[23] = tested on: A549 NSCLC
[24] = tested on: NCI/ADR-RES ovarian
[25] = tested on: M14 melanoma
[26] = tested on: CAKI-1 renal
[27] = tested on: A498 renal
[28] = tested on: 786-0 renal
[29] = tested on: NCI-H226 lung
[30] = tested on: LOX IMVI melanoma
[31] = tested on: HT29 colon
[32] = tested on: CCRF-CEM leukemia
[33] = tested on: SF-295 CNS
[34] = tested on: HS 578T breast
[35] = tested on: SF-268 CNS
[36] = tested on: RXF 393 renal
[37] = tested on: UACC-257 melanoma
[38] = tested on: HCC-2998 colon
[39] = tested on: SNB-75 CNS
[40] = tested on: SK-MEL-2 melanoma
[41] = tested on: MDA-MB-435
[42] = tested on: U251 CNS
[43] = tested on: SNB-19 CNS
[44] = tested on: TK-10 renal
[45] = tested on: HCT-15 colon
[46] = tested on: RPMI-8226 leukemia
[47] = tested on: KM12 colon
[48] = tested on: IGROV1 ovarian
[49] = tested on: MCF7 breast
[50] = tested on: SN12C renal
[51] = tested on: SK-OV-3 ovarian
[52] = tested on: MALME-3M melanoma
[53] = tested on: BT-549 breast
[54] = tested on: ACHN renal
[55] = tested on: NCI-H460 lung
[56] = tested on: NCI-H522 lung
[57] = tested on: PC-3 prostate
[58] = tested on: EKVX NSCLC
[59] = tested on: OVCAR-8 ovarian

Clc1ccc(CNc2nc(SCCN3CCOCC3)nc3c2cnn3CC(Cl)c2ccc(Br)cc2)cc1 (stereo not drawn)
GI50 [1]: 9.59 µM
TGI [1]: > 100 µM
GI50 [2]: 8.71 µM
TGI [2]: > 100 µM
GI50 [3]: 9.03 µM
TGI [3]: > 100 µM
GI50 [4]: 3.81 µM
TGI [4]: > 100 µM
GI50 [5]: 3.65 µM
TGI [5]: > 100 µM
GI50 [6]: 2.85 µM
TGI [6]: > 100 µM
GI50 [7]: 7.66 µM
TGI [7]: 21 µM
GI50 [8]: > 100 µM
TGI [8]: > 100 µM
GI50 [9]: 46.4 µM
TGI [9]: > 100 µM
GI50 [10]: 2.62 µM
TGI [10]: 8.27 µM
GI50 [11]: 5.71 µM
TGI [11]: 32 µM
GI50 [12]: 63 µM
TGI [12]: > 100 µM
GI50 [13]: 1.68 µM
TGI [13]: 5.63 µM
GI50 [14]: 3.3 µM
TGI [14]: 18.9 µM
GI50 [15]: 3.05 µM
TGI [15]: > 100 µM
GI50 [16]: 5.3 µM
TGI [16]: > 100 µM
GI50 [17]: 11.7 µM
TGI [17]: > 100 µM
GI50 [18]: 4.37 µM
TGI [18]: > 100 µM
GI50 [19]: 7.84 µM
TGI [19]: > 100 µM
GI50 [20]: 2.81 µM
TGI [20]: 26.8 µM
GI50 [21]: 6.11 µM
TGI [21]: 91.7 µM
GI50 [22]: 14 µM
TGI [22]: > 100 µM
GI50 [23]: 4.18 µM
TGI [23]: > 100 µM
GI50 [24]: 4.14 µM
TGI [24]: > 100 µM
GI50 [25]: 6.01 µM
TGI [25]: > 100 µM
GI50 [26]: 5.45 µM
TGI [26]: > 100 µM
GI50 [27]: 54.1 µM
TGI [27]: > 100 µM
GI50 [28]: 5.62 µM
TGI [28]: > 100 µM
GI50 [29]: 5.68 µM
TGI [29]: > 100 µM
GI50 [30]: 4.49 µM
TGI [30]: > 100 µM
GI50 [31]: 1.91 µM
TGI [31]: 4.04 µM
GI50 [32]: 3.85 µM
TGI [32]: > 100 µM
GI50 [33]: 3.91 µM
TGI [33]: > 100 µM
GI50 [34]: 9.59 µM
TGI [34]: > 100 µM
GI50 [35]: 7.43 µM
TGI [35]: > 100 µM
GI50 [36]: 1.72 µM
TGI [36]: 8.87 µM
GI50 [37]: 29.9 µM
TGI [37]: > 100 µM
GI50 [38]: 4.4 µM
TGI [38]: > 100 µM
GI50 [39]: 4.65 µM
TGI [39]: > 100 µM
GI50 [40]: 13 µM
TGI [40]: 63.1 µM
GI50 [41]: 6.65 µM
TGI [41]: > 100 µM
GI50 [42]: 5.35 µM
TGI [42]: > 100 µM
GI50 [43]: 8.34 µM
TGI [43]: > 100 µM
GI50 [44]: 31.9 µM
TGI [44]: > 100 µM
GI50 [45]: 3.03 µM
TGI [45]: 11 µM
GI50 [46]: 3.52 µM
TGI [46]: > 100 µM
GI50 [47]: 5.39 µM
TGI [47]: > 100 µM
GI50 [48]: 65.4 µM
TGI [48]: > 100 µM
GI50 [49]: 3.45 µM
TGI [49]: > 100 µM
GI50 [50]: 6.14 µM
TGI [50]: > 100 µM
GI50 [51]: > 100 µM
TGI [51]: > 100 µM
GI50 [52]: 3.94 µM
TGI [52]: 28.9 µM
GI50 [53]: 18.4 µM
TGI [53]: 94.6 µM
GI50 [54]: 4.19 µM
TGI [54]: > 100 µM
GI50 [55]: 4.57 µM
TGI [55]: > 100 µM
GI50 [56]: 6.17 µM
TGI [56]: > 100 µM
GI50 [57]: 4.3 µM
TGI [57]: > 100 µM
GI50 [58]: 4.55 µM
TGI [58]: > 100 µM
GI50 [59]: 17.9 µM
TGI [59]: > 100 µM
